Test results published in patent publication US5876676A, “Preservation of blood platelets” (priority 1996, dated 1999).

What was measured:
[1] = following intracellular microinjection; cited from earlier work
[2] = tested on: platelets; assay: Nucleation activity of cytoskeletons from platelets pre-incubated with cytochalasin B (pyrene-actin assembly, Table III); type: cell-based, human; conditions: for Assembly rate (barbed end): cytochalasin washed out; for Assembly rate (barbed end) / Assembly rate (pointed end): n=4
Protocol: The effect of inhibiting barbed end actin assembly in thrombin-activated cells before detergent lysis on the amount of nucleation activity was determined by preincubating resting platelet suspensions with 2 uM cytochalasin B for 5 min. Because it was necessary to wash out the cytochalasin B from some of the cytoskeletons before addition of the cell lysates to the pyrene assembly assay, the cells were first attached to glass coverslips while still in the presence of cytochalasin B. This was accomplished by sedimenting 0.3 ml of cell suspension onto a 12 mm round glass coverslip for 5 min at 250 g. Individual coverslips were removed, treated with thrombin for 15 s in the presence of cytochalasin B, permeabilized with 1× PHEM-Triton buffer containing 2 uM cytochalasin B for 15 s and then washed in PHEM buffer in the presence or absence of cytochalasin B. Coverslips were then immediately assayed for their ability to promote actin filament assembly as previously described by us using glass adherent macrophage cytoskeletons (Hartwig, J., and P. Janmey, 1989 Biochim. Biophys. Acta. 1010:64-71).
In reference to Table III, resting platelets were incubated with 2 μM cytochalasin B for 5 min, then adhered by centrifugation to 12-mm round glass coverslips coated with polylysine. Cells on the coverslips were exposed to 1 U/ml of thrombin for 30 s in the presence of cytochalasin B and then permeabilized with PHEM-Triton buffer. […] There were 4.2×10^7 platelets per assay. The data are expressed as mean ± SD, n=4. The barbed end assembly rate, initial pointed end addition rate and initial barbed end addition rate were as described in Table I.

[3] = tested on: cells in vitro; conditions: cited from earlier work
[4] = tested on: mice; conditions: cited from earlier work
[5] = tested on: barbed end of actin filaments; assay: Pyrene-labeled actin assembly (nucleation) assay in detergent lysates of resting and thrombin-activated platelets; type: biochemical, human
Protocol: The effect of cell lysates on the rate and extent of pyrene-labeled rabbit skeletal muscle actin was determined as described previously (Hartwig, J., and P. Janmey, 1989 Biochim. Biophys. Acta. 1010:64-71). Suspensions of resting or thrombin-activated cells at concentrations of 1.4×10^8 /ml were permeabilized by the addition of 0.1 volume of 60 mM Pipes, 25 mM Hepes, 10 mM EGTA, 2 mM MgCl2, 0.75% Triton and 42 nM leupeptin, 10 mM benzamidine, and 0.123 mM aprotinin to inhibit proteases (Schliwa, J., et al., 1981 Proc. Natl. Acad. Sci. USA 80:5417-5420). 100 ul of detergent lysate was added to 190 ul of 100 mM KCl, 2 mM MgCl2, 0.5 mM ATP, 0.1 mM EGTA, 0.5 mM dithiothreitol, and 10 mM Tris, pH 7.0 and the polymerization rate assay was started by the addition of monomeric pyrene-labeled rabbit skeletal muscle actin to a final concentration of 2 uM. The relative contribution of nuclei with barbed or pointed ends in the cell lysates was determined by adding 2 uM cytochalasin B to the pyrene nucleation assay system. […] Activity not inhibited by cytochalasin B is considered pointed end assembly. […] To determine if the measured stimulation of actin assembly and its decay with time was due to the growth of pyrene-actin addition onto cellular filaments subject to depolymerization in the diluted lysate, 0.1 uM phalloidin or phallacidin was added to the cell lysates during their preparation to stabilize the filaments. […] However, we also determined that the soluble phase from cells permeabilized with detergent in the presence of EGTA contained calcium dependent nucleation activity. […] The amount of pointed end activity in these soluble extracts was determined by adding a final concentration of 2 uM cytochalasin B to the pyrene-actin assembly assay.
In reference to Table I, gel-filtered platelets were suspended to a concentration of 1.4×10^8 /ml in platelet buffer, rested for 30 minutes at 37° C., and then treated with or without 1 U/ml of thrombin for 15 s. […] Data are expressed as mean±SD, n=4.

[6] = tested on: pointed end actin nuclei in soluble fraction of platelet lysates; assay: Calcium-sensitive soluble nucleation activity in supernatants of platelet lysates (pyrene-actin assembly); type: biochemical, human
Protocol: The effect of cell lysates on the rate and extent of pyrene-labeled rabbit skeletal muscle actin was determined as described previously (Hartwig, J., and P. Janmey, 1989 Biochim. Biophys. Acta. 1010:64-71). Suspensions of resting or thrombin-activated cells at concentrations of 1.4×10^8 /ml were permeabilized by the addition of 0.1 volume of 60 mM Pipes, 25 mM Hepes, 10 mM EGTA, 2 mM MgCl2, 0.75% Triton and 42 nM leupeptin, 10 mM benzamidine, and 0.123 mM aprotinin to inhibit proteases (Schliwa, J., et al., 1981 Proc. Natl. Acad. Sci. USA 80:5417-5420). 100 ul of detergent lysate was added to 190 ul of 100 mM KCl, 2 mM MgCl2, 0.5 mM ATP, 0.1 mM EGTA, 0.5 mM dithiothreitol, and 10 mM Tris, pH 7.0 and the polymerization rate assay was started by the addition of monomeric pyrene-labeled rabbit skeletal muscle actin to a final concentration of 2 uM. The relative contribution of nuclei with barbed or pointed ends in the cell lysates was determined by adding 2 uM cytochalasin B to the pyrene nucleation assay system. […] Activity not inhibited by cytochalasin B is considered pointed end assembly. The stability of nucleation activity in cell lysates was tested by comparing the stimulatory effect of fresh lysate on actin assembly with lysates allowed to stand for 30 s to 30 min at 37° C. before addition to the assembly assay. To determine if the measured stimulation of actin assembly and its decay with time was due to the growth of pyrene-actin addition onto cellular filaments subject to depolymerization in the diluted lysate, 0.1 uM phalloidin or phallacidin was added to the cell lysates during their preparation to stabilize the filaments. As shown in the results, all nucleation activity present in resting and activated cells was associated with the detergent-insoluble cytoskeleton. However, we also determined that the soluble phase from cells permeabilized with detergent in the presence of EGTA contained calcium dependent nucleation activity. Detergent lysates from resting and thrombin-activated cells (30 s, 1 U/ml) were centrifuged at 10,000 g for 2 min at room temperature in a microcentrifuge. The supernatant was removed and added to the pyrene-based nucleation assay in the presence of 1 mM EGTA or CaCl2. The amount of pointed end activity in these soluble extracts was determined by adding a final concentration of 2 uM cytochalasin B to the pyrene-actin assembly assay.
In reference to Table II, lysates were prepared from resting thrombin-treated cells with detergent and centrifuged in a Sorvall Microspin 12S at 13,000 rpm for 1 min. Nucleation activity remaining in the supernatant after removal of the cytoskeletal fraction was determined. […] The data are expressed as mean±SD, n=4. […]

[7] = Activated: 2 μM cytochalasin B, 1 U/ml thrombin 30 s
[8] = Activated: 2 μM cytochalasin B, then 1 U/ml thrombin 30 s
[9] = Resting platelets incubated with 2 μM cytochalasin B
[10] = Resting platelets incubated with 2 μM cytochalasin B 5 min
[11] = Activated (thrombin), + 2 μM CB, supernatant, mean±SD, n=4

For `O=C(O)CN(CC(=O)O)c1ccccc1OCCOc1ccccc1N(CC(=O)O)CC(=O)O` [BAPTA, 1,2-bis(2-aminophenoxy) ethane N,N,-N',N'-tetraacetic acid], the “Binding to membranes or toxic effects” value [1] is listed as “little or no”.

With `C=C1C(C)C2C(Cc3ccccc3)NC(=O)C23OC(=O)C=CC(O)CCCC(C)CC=CC3C1O` (stereo not shown) [cytochalasin B] the “Nucleation activity after cytochalasin B treatment of resting cells” value ([2]; 2 μM cytochalasin B, resting platelets) was “did not by itself result in nucleation activity”, the Barbed nuclei/platelet [2, 7] was 380 and the Pointed nuclei/platelet [2, 7] was 1,980. For the same molecule, the “Subunits added to barbed ends” value [2, 7] was 3.9e+11 s⁻¹, the “Subunits added to pointed ends” value [2, 7] was 9.95e+10 s⁻¹ and the “Assembly rate (barbed end)” value [2, 8] was 1.59 nM/s. For the same molecule, the “Assembly rate (pointed end)” value [2, 8] was 0.55 nM/s, the Barbed nuclei/platelet [2, 9] was 50 and the Pointed nuclei/platelet [2, 9] was 1,980. The “Subunits added to barbed ends” value [2, 9] was 2e+10 s⁻¹, the “Subunits added to pointed ends” value [2, 9] was 9.95e+10 s⁻¹ and the “Assembly rate (barbed end)” value [2, 10] was 0.18 nM/s. For the same molecule, the “Assembly rate (pointed end)” value [2, 10] was 0.55 nM/s, the “Stimulation of pyrene-actin assembly rate by thrombin-activated, cytochalasin B-treated cytoskeletons compared with resting cells incubated with cytochalasin B” value ([2]; cytochalasin present during activation, washed away before assay) was “four-fold” and the MNTC ([3]; 2 h) was at most 200 µM. The Non-cytotoxic concentration ([3]; 2 h) was “up to 100 ug/ml”, the “Cytotoxicity on prolonged exposure” value [3] was “reversible cytotoxicity” and the LD50 ([4]; intraperitoneal) was 50 mg/kg. For the same molecule, the “Time to clearance from all tissues but liver” value ([4]; intraperitoneal) was at most 24 h, the “Recovery of injected cytochalasin B” value ([4]; within a few minutes following injection) was 35% and the “Pyrene actin assembly onto actin filaments at the barbed end” value ([5]; 2 uM cytochalasin B) was “completely inhibited”. For the same molecule, the “Stimulatory effect of lysates on pyrene-actin assembly rate” value ([5]; 2 uM cytochalasin B added to assay, lysates of platelets activated with 1 U/ml thrombin) was “abolished”, the “Effect on nucleation activity of lysates from resting cells” value ([5]; 2 uM cytochalasin B added to lysates, resting platelets) was “only a small effect” and the “Calcium-dependent soluble actin nucleation activity” value ([6]; 2 uM cytochalasin B, soluble fraction, thrombin-activated platelets) was “completely unaffected”. For the same molecule, the “Assembly Rate” value [6, 11] was 0.55 ± 0.02 nM/s, the Pointed nuclei/platelet [6, 11] was 5,000 ± 250 and the “Subunits added to pointed ends” value [6, 11] was 1.0 ± 0.05 ×10^10 s^-1.
